Results published in patent publication US20150284393A1, “METHODS FOR TREATING EYE DISORDERS” (PRISM PHARMA CO., LTD, priority 2012, published 2015).

Tests used:
[1] = system: rat model of proliferative vitreoretinopathy (PVR) following retinal detachment; assay: rat model of proliferative vitreoretinopathy (PVR) following retinal detachment; format: in vivo, Long Evans rats
Excerpt: The objective of this study was to assess the anti-fibrotic efficacy of Compound A, an alpha helix mimetic β-catenin inhibitor compound, in a rat model of proliferative vitreoretinopathy (PVR) following retinal detachment. Compound A is 4-(((6S,9S,9aS)-1-(benzylcarbamoyl)-2,9-dimethyl-4,7-dioxo-8-(quinolin-8-ylmethyl)octahydro-1H-pyrazino[2,1-c][1,2,4]triazin-6-yl)methyl)phenyl dihydrogen phosphate.
The well defined normal consequences of retinal detachment in this animal model are the hyperproliferation of retinal glial cells (primarily Muller cells), the recruitment of immune cells, and the formation of glial scars. An effective treatment would result in less glial scarring.
Retinal detachments were created by infusing a dilute solution (0.25%) of Healon into the subretinal space of the right eyes in 16 Long Evans rats. Twenty (20) mg/ml of Compound A in 5 microliters were injected intravitreally immediately after the detachment surgery in 8 animals. The other 8 animals received an intravitreal injection of the vehicle as a control. The left eyes served as naive controls. Seven days after detachment, settling of the retina occurs causing folds to form in the retina. All animals were euthanized using CO2, 7 days after retinal detachment.
Following euthanasia, the retinas were fixed in 4% paraformaldehyde for 24 hours. Three retinal regions approximately 3 mm square were sampled from within each detached retina as well as from control retinas. The retinas were embedded in agarose and vibratomed at 100 microns in thickness. Sections were immunolabeled with antibodies to intermediate filament proteins (vimentin) and proliferating cells (phosphohistone H3). A marker for immune cells (isolectin B4) and a nuclear stain (Hoescht) was also used. All 4 probes were added to the same sections (i.e. quadruple labeling).
The sections were imaged using an Olympus FV1000 confocal microscope. Digital images were aquired and used to determine 1) the number and size of subretinal glial scars 2) the number of dividing cells and their cell type e.g. of immune or glial origin 3) whether microglia were “activated” and 4) if macrophages were present.
The data were analyzed using a two-tailed T-test. Mean differences with a P values less than 0.05 were considered significant.
Scar frequency was calculated by dividing the total number of scars noted in each retina by the total area examined. The average scar size/length was calculated by dividing the total scar length in a given retina by the total number of scars counted in that retina.
Immunohistochemistry. Qualitative assessment of animals (4 saline and 4 Compound A treated) were evaluated for glial scarring, cell proliferation, and immune cell infiltrates. Three retinal regions from rats 5-8 (PVR+saline) and 13-16 (PVR+Compound A) were excised from the eye, sectioned, and labeled with antibodies (˜25 sections from each eye were surveyed).

[2] = system: rat model of laser-induced choroidal neovascularization; assay: rat model of laser-induced choroidal neovascularization (CNV); format: in vivo, Brown Norway rats; conditions: for average CNV lesion size vs vehicle controls: bilateral intravitreal on Days 3 and 10; for anti-angiogenic or vascular disruption activity: rat model of CNV, intravitreal
Excerpt: The objective of this study was to assess the anti-angiogenic/vascular disrupting effects of Compound A, an alpha helix mimetic β-catenin inhibitor compound, and Compound C, the active metabolite of Compound A, in a rat model of laser-induced choroidal neovascularization. Compound A is 4-(((6S,9S,9aS)-1-(benzylcarbamoyl)-2,9-dimethyl-4,7-dioxo-8-(quinolin-8-ylmethyl)octahydro-1H-pyrazino[2,1-c][1,2,4]triazin-6-yl)methyl)phenyl dihydrogen phosphate. Compound C is (6S,9S,9aS)-N-benzyl-6-(4-hydroxybenzyl)-2,9-dimethyl-4,7-dioxo-8-(quinolin-8-ylmethyl)octahydro-1H-pyrazino[2,1-c][1,2,4]triazine-1-carboxamide.
For compound A, an 80 mg/ml solution of 4-(((6S,9S,9aS)-1-(benzylcarbamoyl)-2,9-dimethyl-4,7-dioxo-8-(quinolin-8-ylmethyl)octahydro-1H-pyrazino[2,1-c][1,2,4]triazin-6-yl)methyl)phenyl dihydrogen phosphate was prepared in sterile PBS. This solution was further diluted 1:4 to make a 20 mg/ml solution. The 20 mg/ml solution was diluted 1:4 to make a 5 mg/ml solution.
For compound C, a solution containing 0.5% NaCMC and 0.5% Polysorbate 80 (Tween 80) was prepared in USP grade water. 20 mg of (6S,9S,9aS)-N-benzyl-6-(4-hydroxybenzyl)-2,9-dimethyl-4,7-dioxo-8-(quinolin-8-ylmethyl)octahydro-1H-pyrazino[2,1-c][1,2,4]triazine-1-carboxamide was dissolved in 1 ml (using displacement pipette) of USP grade PEG400 in a glass vial. Slight heating and sonication/vortexing were performed if necessary. The glass vial containing the 20 mg/ml compound C solution was placed on a magnetic stir plate and an equal volume (1 ml) of the CMC/Tween 80 solution was added to the compound C/PEG400 solution (slowly in drop-wise fashion during continuous mixing with a stir bar). The resultant formulation was a clear solution containing 10 mg/ml compound C, 50% PEG400, 0.25% NaCMC, and 0.25% Tween 80.
Laser application to produce CNV lesions. Animals were dilated with 1% Cyclogyl solution and protected from light. Following observable dilation, the animals were sedated with ketamine/xylazine. The fundus of sedated animals was observed and recorded using a Micron III small animal funduscope (Phoenix Research). Laser treatments were performed using a thermal laser which is connected through the Micron III custom laser attachment. A total of 3 lesions per eye were placed using a wavelength of 520 nm.
Fundus images were recorded to confirm that the laser had successfully produced a bubble through the Bruch's membrane. It was expected that 5-10% of all laser spots would not develop any quantifiable CNV.
Intravitreal injections. Animals were anesthetized with ketamine/xylazine and the test compound was then injected in a volume of 5 μl into the vitreous through the pars plana using a Hamilton syringe and a 32 gauge needle. Following injection, the animals received an equal amount of topical antibiotic ointment on both eyes. Any eyes displaying signs of hemorrhage following laser application or intravitreal injection were excluded from analysis.
Fluorescein angiography. Animals were anesthetized with ketamine/xylazine and then received an IP injection of 10% Fluorescein Sodium at 1 μl/gram of body weight. Fundus images were then captured as 8-bitt TIFF files using the Micron III and exciter/barrier filters for a target wavelength of 488 nm. Standard color fundus photos were also captured for each eye.
Imaging and lesion quantification. All TIFF images were quantified using computerized image-analysis software (ImageJ, NIH, USA). Lesions were then individually traced free-hand in order to quantify the area in pixels and the color fundus photos were used as a reference for lesion location. Areas of avascularization in the center of lesions were excluded from area calculations. In the case of a hemorrhage or two lesions overlapping these lesions were excluded from analysis.
Statistical Analyses. Statistical Analyses were performed with Graphpad Prism software (version 5) using one-way analysis of variance (ANOVA) with a Tukey's post-hoc test for significance.
Animals. […]

## C[C@H]1[C@H]2N(C(=O)CN(C)N2C(=O)NCc2ccccc2)[C@@H](Cc2ccc(OP(=O)(O)O)cc2)C(=O)N1Cc1cccc2cccnc12 [Compound A, 4-(((6S,9S,9aS)-1-(benzylcarbamoyl)-2,9-dimethyl-4,7-dioxo-8-(quinolin-8-ylmethyl)octahydro-1H-pyrazino[2,1-c][1,2,4]triazin-6-yl)methyl)phenyl dihydrogen phosphate]
[1]; 20 mg/ml in 5 microliters intravitreally immediately after detachment, 7 days after detachment, vs vehicle, FIG. 1A
  dividing immune cells (immune cell response) following retinal detachment: did not have any effect
[1]; 20 mg/ml in 5 microliters intravitreally, 7 days after detachment, two-tailed T-test, P<0.05 significant, FIG. 1C
  number of Muller cells/mm: significantly affected
[1]; 20 mg/ml in 5 microliters intravitreally, 7 days after detachment, vs vehicle, FIG. 1B
  increase in number of proliferating glial cells following retinal detachment: largely attenuated
[1]; 20 mg/ml in 5 microliters intravitreally, 7 days after detachment, vs vehicle, FIG. 1C
  increase in number of proliferating Muller cells following retinal detachment: largely attenuated
[1]; 20 mg/ml in 5 microliters intravitreally, 7 days after detachment, vs vehicle, FIG. 1D
  increase in number of proliferating astrocytes following retinal detachment: largely attenuated
[1]; 20 mg/ml in 5 microliters intravitreally, 7 days after detachment, vs vehicle, FIG. 2A
  frequency of glial scar formation (total number of scars / total area examined): significantly reduced
[1]; 20 mg/ml in 5 microliters intravitreally, 7 days after detachment, vs vehicle, FIG. 2B
  average scar size/length (total scar length / number of scars): significant reduction
[1]; qualitative assessment, 4 treated animals (rats 13-16) vs 4 saline, FIGS. 3C-3D
  subretinal gliosis (glial scarring), vimentin labeled Muller cell processes extending into the subretinal space, immunohistochemistry: no glial scarring was noted
[2]; Day 15, 400 μg, p<0.01, FIG. 4A
  average CNV lesion size vs vehicle controls: statistically significant
[2]; Day 22, 100 μg, p<0.01, FIG. 4B
  average CNV lesion size vs vehicle controls: demonstrated significance
[2]
  anti-angiogenic or vascular disruption activity: demonstrated efficacy
[2]; two higher tested doses (100 μg or 400 μg), 25 μg not significant
  CNV lesion size, dose effect: demonstrated statistical significance

## C[C@H]1[C@H]2N(C(=O)CN(C)N2C(=O)NCc2ccccc2)[C@@H](Cc2ccc(O)cc2)C(=O)N1Cc1cccc2cccnc12 [Compound C, (6S,9S,9aS)-N-benzyl-6-(4-hydroxybenzyl)-2,9-dimethyl-4,7-dioxo-8-(quinolin-8-ylmethyl)octahydro-1H-pyrazino[2,1-c][1,2,4]triazine-1-carboxamide]
[2]; 50 μg intravitreal
  size of the lesions: significant impact
[2]; Day 15, 50 μg, p<0.05, FIG. 4A
  average CNV lesion size vs vehicle controls: statistically significant
[2]
  anti-angiogenic or vascular disruption activity: demonstrated efficacy
